Test results: patent US20180221438A1, “MODULATING URACIL-DNA GLYCOSYLASE AND USES THEREOF” (Adaerata Limited Partnership, priority 2015, published 2018)

Key:
Type in all cases: cell-based
[1] = system: Primary B cells from AID UNG double deficient mice; settings: 1 nM DidB, 72 h, AID-ires-GFP vs GFP alone or AIDE58A
Description: Primary B cells were harvested from AID UNG double deficient mice and cultured with anti-CD180, IL-4 and LPS. […] 24 h post infection, cells were treated with either DMSO vehicle or 1 nM of the EEF1A inhibitor DidB. Toxicity was measured after 72 h as the % difference of GFP+ cells in the DidB-treated culture compared to DMSO control. Data from two mice are averaged, bars are SEM.

[2] = system: B cells from wt or UNG−/− mice; experiment: B cell expansion by cell count after DidB treatment; settings: cells counted 48 h post-treatment, LPS and IL-4
Description: (§1) B cells were purified from wt or UNG−/− mice, and cultured directly with LPS and IL-4 and were counted 48 h post-treatment in order to measure B cell expansion (FIG. 14B); or after loading with the CFSE dye and cell divisions for treated cells were measured by analyzing the dilution of CFSE dye at 24 h post-treatment. Dilution of CFSE in cells is proportional to proliferation (FIGS. 14C-D).
(§2) 24 h later, cells were treated with either DMSO or DidB.

[3] = system: B cells from wt or UNG−/− mice; experiment: B cell divisions by CFSE dilution after DidB treatment; settings: Ung-deficient vs wt B cells
Description: as §1, §2

For `CC[C@H](C)[C@H]1NC(=O)[C@@H](NC(=O)[C@@H](CC(C)C)N(C)C(=O)[C@@H]2CCCN2C(=O)C(C)O)[C@@H](C)OC(=O)[C@H](Cc2ccc(OC)cc2)N(C)C(=O)[C@@H]2CCCN2C(=O)[C@H](CC(C)C)NC(=O)[C@@H](C)C(=O)[C@H](C(C)C)OC(=O)C[C@@H]1O` (stereo partly shown) [DidB, didemnin B], the “sensitivity to DidB (toxicity, % difference of GFP+ cells vs DMSO)” value [1] was “substantially more sensitive”, the B cell expansion [2] was “further diminishes expansion in Ung-deficient B cells” and the “sensitivity to DidB treatment (cell divisions, CFSE)” value ([3]; 24 h post-treatment) was “more sentitive”. For the same compound, the inhibition of proliferation ([3]; dose-dependent, CFSE dilution 24 h post-treatment) was “more marked in Ung-deficient B cells than wt B cells”.
